From US20160108039A1, “TRIAZOLOPYRIDINES AS THROMBIN INHIBITORS FOR THE TREATMENT OF THROMBOEMBOLIC DISEASES” (BAYER PHARMA AKTIENGESELLSCHAFT, priority 2013, published 2016) come the findings set out here.

For test [1], the target named is T1, thrombin (Homo sapiens, UniProt P00734). Nature of the test: Thrombin-inhibitory activity in plasma samples (ecarin-activated). Format: biochemical. The following applies: citrate plasma, ecarin activation, fluorogenic thrombin substrate; read at about 70% of maximum signal (about 12 min); in some cases means. As to the method: To determine the inhibition of thrombin in plasma samples, plasma prothrombinase is activated by ecarin. Thrombin activity and/or its inhibition by potential inhibitors is/are then measured fluorescently by addition of a substrate.
The substances to be tested are dissolved in various concentrations in dimethyl sulphoxide and diluted with water. In white 96-well flat-bottomed plates, 20 μl of substance dilution are mixed with 20 μl of ecarin solution (ecarin reagent, from Sigma E-0504, final concentration 20 mU per reaction) in Ca buffer (200 mM Hepes+560 mM sodium chloride+10 mM calcium chloride+0.4% PEG) or with 20 μl of Ca buffer (as unstimulated control). Furthermore, 20 μl of fluorogenic thrombin substrate (from Bachem 1-1120, final concentration 50 μmol/l) and 20 μl of citrate plasma (from Octapharma) are added, and the mixture is homogenized well. The plate is measured in a SpectraFluorplus Reader using a 360 nm excitation filter and a 465 nm emission filter every minute over 20 minutes. […] Representative activity data from this test are given in Table 2 below (in some cases as means of individual determinations): […]

The target of test [2] is T1, thrombin. The test is described as follows: Measurement of the thrombin inhibition in buffer. Format: biochemical. The following applies: human thrombin 0.06 nmol/l in Tris buffer pH 7.4, 22° C., substrate Boc-Asp(OBzl)-Pro-Arg-AMC; in some cases means of individual determinations. As to the method: To determine the thrombin inhibition of the substances listed above, a biochemical test system is constructed in which the conversion of a thrombin substrate is used for determining the enzymatic activity of human thrombin. Here, thrombin cleaves aminomethylcoumarin, which is measured fluorescently, from the peptic substrate. The determinations are carried out in microtitre plates.
Substances to be tested are dissolved in various concentrations in dimethyl sulphoxide and incubated for 15 min with human thrombin (0.06 nmol/l dissolved in 50 mmol/l of Tris buffer [C,C,C-tris(hydroxymethyl)aminomethane], 100 mmol/l of sodium chloride, 0.1% BSA [bovine serum albumin], pH 7.4) at 22° C. The substrate (5 μmol/l Boc-Asp(OBzl)-Pro-Arg-AMC from Bachem) is then added. After 30 min of incubation, the sample is excited at a wavelength of 360 nm and the emission is measured at 460 nm. The measured emissions of the test mixtures with test substance are compared to the control mixtures without test substance (only dimethyl sulphoxide instead of test substance in dimethyl sulphoxide) and IC50 values are calculated from the concentration/activity relationships. Representative activity data from this test are given in Table 1 below (in some cases as means of individual determinations): […]

SMILES strings stand for the structures.

As for `COc1cc(C(=O)N2CC(C)(C)OCC2(C)CO)cn2nc(NCc3cccc(Cl)c3)nc12` (racemic) [Example 8, {2-[(3-Chlorobenzyl)amino]-8-methoxy[1,2,4]triazolo[1,5-a]pyridin-6-yl}[5-(hydroxymethyl)-2,2,5-trimethylmorpholin-4-yl]methanone], the figures for the IC50 against thrombin [1] and on thrombin [2] were 29 nM and 20 nM, respectively. On the same counts, the results for `COCC1COC(C)(C)CN1C(=O)c1cc(OC)c2nc(NCc3cccc(Cl)c3)nn2c1` (racemic) [Example 11, {2-[(3-Chlorobenzyl)amino]-8-methoxy[1,2,4]triazolo[1,5-a]pyridin-6-yl}[5-(methoxymethyl)-2,2-dimethylmorpholin-4-yl]methanone] are 64 nM and 63 nM. On the same counts, the results for `COc1cc(C(=O)N2CC(C)(C)OCC2CF)cn2nc(NCc3cccc(Cl)c3)nc12` (racemic) [Example 12, {2-[(3-Chlorobenzyl)amino]-8-methoxy[1,2,4]triazolo[1,5-a]pyridin-6-yl}[5-(fluoromethyl)-2,2-dimethylmorpholin-4-yl]methanone] are 56 nM and 35 nM. On the same counts, the results for `COc1cc(C(=O)N2CC(C)OCC2CCO)cn2nc(NCc3cccc(Cl)c3)nc12` (racemic) [Example 15, {2-[(3-Chlorobenzyl)amino]-8-methoxy[1,2,4]triazolo[1,5-a]pyridin-6-yl}[5-(2-hydroxyethyl)-2-methylmorpholin-4-yl]methanone] are 75 nM and 53 nM. On to `COc1cc(C(=O)N2CC(C)OCC2(C)C)cn2nc(NCc3cccc(Cl)c3)nc12` (racemic) [Example 26], for which, on thrombin [2], the half-maximal inhibitory concentration (IC50) (usually the midpoint of a concentration-inhibition curve) stood at 88 nM.

Consider `COc1cc(C(=O)N2CC(C)(CCO)OCC2(C)C)cn2nc(NCc3cccc(Cl)c3)nc12` (racemic) [Example 31, {2-[(3-Chlorobenzyl)amino]-8-methoxy[1,2,4]triazolo[1,5-a]pyridin-6-yl}[2-(2-hydroxyethyl)-2,5,5-trimethylmorpholin-4-yl]methanone], for which the half-inhibitory concentration (IC50) against thrombin [1] stood at 15 nM; at thrombin [2], 11 nM. On the same counts, the results for `COc1cc(C(=O)N2CC(C)OCC2CC(C)(C)O)cn2nc(NCc3cccc(Cl)c3)nc12` (racemic) [Example 42, {2-[(3-Chlorobenzyl)amino]-8-methoxy[1,2,4]triazolo[1,5-a]pyridin-6-yl}[5-(2-hydroxy-2-methylpropyl)-2-methylmorpholin-4-yl]methanone] are 54 nM and 37 nM.

Take `COc1cc(C(=O)N2CC3CCN3C(=O)C2C)cn2nc(N[C@H](C)c3cccc(Cl)c3)nc12` (single isomer, unassigned) [Example 1]: the 50% inhibitory concentration (IC50) at thrombin [1] was found to be 33 nM; against thrombin [2] it was 34 nM. As to `COc1cc(C(=O)N2CC(C)OCC2C2CC(O)C2)cn2nc(NCc3cccc(Cl)c3)nc12` (single isomer, unassigned) [Example 3, {2-[(3-Chlorobenzyl)amino]-8-methoxy[1,2,4]triazolo[1,5-a]pyridin-6-yl}[5-(3-hydroxycyclobutyl)-2-methylmorpholin-4-yl]methanone], the IC50 on thrombin [1] and against thrombin [2] was 70 nM throughout.

On to `COc1cc(C(=O)N2CC(C)OC[C@H]2C)cn2nc(NC(CF)c3cccc(Cl)c3)nc12` (single isomer, unassigned) [Example 5], for which, on thrombin [1], half-maximal inhibition (IC50) required 87 nM.

Consider `COc1cc(C(=O)N2CC(C)(C)OCC2CF)cn2nc(NCc3cccc(Cl)c3)nc12` (single isomer, unassigned) [Example 13, {2-[(3-Chlorobenzyl)amino]-8-methoxy[1,2,4]triazolo[1,5-a]pyridin-6-yl}[5-(fluoromethyl)-2,2-dimethylmorpholin-4-yl]methanone], for which the IC50 against thrombin [2] amounted to 420 nM.

`COc1cc(C(=O)N2CC(C)OCC2(C)C)cn2nc(NCc3cccc(Cl)c3)nc12` (single isomer, unassigned) [Example 28] yielded a concentration for half-maximal inhibition (IC50) against thrombin [2] of 180 nM. The same measure, in the same setting: for `COc1cc(C(=O)N2CC(C)(CCO)OCC2(C)C)cn2nc(NCc3cccc(Cl)c3)nc12` (single isomer, unassigned) [Example 32, {2-[(3-Chlorobenzyl)amino]-8-methoxy[1,2,4]triazolo[1,5-a]pyridin-6-yl}[2-(2-hydroxyethyl)-2,5,5-trimethylmorpholin-4-yl]methanone] the value was 230 nM. For the compound `COc1cc(C(=O)N2CC(C)(CC(C)O)OCC2(C)C)cn2nc(NCc3cccc(Cl)c3)nc12` (single isomer, unassigned) [Example 38, {2-[(3-Chlorobenzyl)amino]-8-methoxy[1,2,4]triazolo[1,5-a]pyridin-6-yl}[2-(2-hydroxypropyl)-2,5,5-trimethylmorpholin-4-yl]methanone], the IC50 against thrombin [2] stood at 2800 nM. Same read-out and setting: the value for `COc1cc(C(=O)N2CC(C)OCC2CC(C)(C)O)cn2nc(NCc3cccc(Cl)c3)nc12` (single isomer, unassigned) [Example 43, {2-[(3-Chlorobenzyl)amino]-8-methoxy[1,2,4]triazolo[1,5-a]pyridin-6-yl}[5-(2-hydroxy-2-methylpropyl)-2-methylmorpholin-4-yl]methanone] was 81 nM; that for `COc1cc(C(=O)N2CC(C)OCC2CC(C)(C)O)cn2nc(NCc3cccc(Cl)c3)nc12` (single isomer, unassigned) [Example 44, {2-[(3-Chlorobenzyl)amino]-8-methoxy[1,2,4]triazolo[1,5-a]pyridin-6-yl}[5-(2-hydroxy-2-methylpropyl)-2-methylmorpholin-4-yl]methanone] was 29 nM. Same read-out and setting: the value for `COc1cc(C(=O)N2CC(C)(C)OCC2CC(C)O)cn2nc(NCc3cccc(Cl)c3)nc12` (single isomer, unassigned) [Example 46, {2-[(3-Chlorobenzyl)amino]-8-methoxy[1,2,4]triazolo[1,5-a]pyridin-6-yl}[5-(2-hydroxypropyl)-2,2-dimethylmorpholin-4-yl]methanone] was 190 nM; that for `COc1cc(C(=O)N2CC(C)(C)OCC2CC(C)O)cn2nc(NCc3cccc(Cl)c3)nc12` (single isomer, unassigned) [Example 47, {2-[(3-Chlorobenzyl)amino]-8-methoxy[1,2,4]triazolo[1,5-a]pyridin-6-yl}[5-(2-hydroxypropyl)-2,2-dimethylmorpholin-4-yl]methanone] was 180 nM; that for `COc1cc(C(=O)N2CC(C)(C)OCC2CC(C)O)cn2nc(NCc3cccc(Cl)c3)nc12` (single isomer, unassigned) [Example 48, {2-[(3-Chlorobenzyl)amino]-8-methoxy[1,2,4]triazolo[1,5-a]pyridin-6-yl}[5-(2-hydroxypropyl)-2,2-dimethylmorpholin-4-yl]methanone] was 39 nM. Turning to `COc1cc(C(=O)N2CC(C)(CCO)OCC2CF)cn2nc(NCc3cccc(Cl)c3)nc12` (single isomer, unassigned) [Example 51, {2-[(3-Chlorobenzyl)amino]-8-methoxy[1,2,4]triazolo[1,5-a]pyridin-6-yl}[5-(fluoromethyl)-2-(2-hydroxyethyl)-2-methylmorpholin-4-yl]methanone], the IC50 against thrombin [2] stood at 3500 nM. The same measure, in the same setting: for `COc1cc(C(=O)N2CC(C)(CCO)OCC2CF)cn2nc(NCc3cccc(Cl)c3)nc12` (single isomer, unassigned) [Example 52, {2-[(3-Chlorobenzyl)amino]-8-methoxy[1,2,4]triazolo[1,5-a]pyridin-6-yl}[5-(fluoromethyl)-2-(2-hydroxyethyl)-2-methylmorpholin-4-yl]methanone] the value was 1200 nM; for `COc1cc(C(=O)N2CC(C)(CC(C)O)OCC2CF)cn2nc(NCc3cccc(Cl)c3)nc12` (single isomer, unassigned) [Example 57, {2-[(3-Chlorobenzyl)amino]-8-methoxy[1,2,4]triazolo[1,5-a]pyridin-6-yl}[5-(fluoromethyl)-2-(2-hydroxypropyl)-2-methylmorpholin-4-yl]methanone], 1000 nM. The compound `[2H]C([2H])(C)O[C@@H]1CC(CO)N(C(=O)c2cc(OC)c3nc(NCc4cccc(Cl)c4)nn3c2)C1` (stereo partly drawn) [Example 73, {2-[(3-Chlorobenzyl)amino]-8-methoxy[1,2,4]triazolo[1,5-a]pyridin-6-yl}[(4R)-4-[(1,1-^2H2)ethyloxy]-2-(hydroxymethyl)pyrrolidin-1-yl]methanone] gave an IC50 on thrombin [1] of 39 nM.
